Assay results: patent publication US9540314B2, “N-cycloalkyl-N-[(cycloalkenylphenyl)methylene]-(thio) carboxamide derivatives” (BAYER INTELLECTUAL PROPERTY GMBH, priority 2012, dated 2017)

Legend:
Sphaerotheca fuliginea = assay: In vivo preventive test on Sphaerotheca fuliginea (powdery mildew on cucurbits); details: 500 ppm, gherkin plants, grading 12 days after contamination
Procedure: The active ingredients tested are prepared by homogenization in a mixture of acetone/tween/DMSO and then diluted with water to obtain the desired active material concentration.
Gherkin plants (“Vert petit de Paris” variety), sown in starter cups on a 50/50 peat soil-pozzolana substrate and grown at 24° C., are treated at the Z11 cotyledon stage by spraying with the active ingredient prepared as described above. Plants, used as controls, are treated with the mixture of acetone/tween/DMSO/water not containing the active material.
After 24 hours, the plants are contaminated by spraying the cotyledons with an aqueous suspension of Sphaerotheca fuliginea spores (100 000 spores per mL). The spores are collected from infected plants. The contaminated gherkin plants are incubated at about 20° C. and at 70-80% relative humidity.
Grading (% of efficacy) is carried out 12 days after the contamination, in comparison with the control plants.
Under these conditions, good (at least 70%) to total protection is observed at a dose of 500 ppm of active ingredient with the following compounds from table A: […]

Alternaria solani = assay: In vivo preventive test on Alternaria solani (tomato); details: 100 ppm, evaluated 3 days after inoculation
Procedure: Solvent: 24.5 parts by weight of acetone
• 24.5 parts by weight of N,N-dimethylacetamide Emulsifier: 1 part by weight of alkylarylpolyglycol ether
(§1) To produce a suitable preparation of active compound, 1 part by weight of active compound is mixed with the stated amounts of solvent and emulsifier, and the concentrate is diluted with water to the desired concentration.
(§2) To test for preventive activity, young plants are sprayed with the preparation of active compound at the stated rate of application. After the spray coating has dried on, the plants are inoculated with an aqueous spore suspension of Alternaria solani. The plants are then placed in an incubation cabinet at approximately 20° C. and a relative atmospheric humidity of 100%.
The test is evaluated 3 days after the inoculation. 0% means an efficacy which corresponds to that of the untreated control while an efficacy of 100% means that no disease is observed.
Under these conditions, high (at least 90%) protection is observed at a dose of 100 ppm of active ingredient with the following compound from table B: […]

Venturia inaequalis = assay: In vivo preventive test on Venturia inaequalis (apples); details: 100 ppm, evaluated 10 days after inoculation
Procedure: as §1
as §2, with “conidia” for “spore”, “the causal agent of apple scab (Venturia inaequalis) and” for “Alternaria solani. The plants are”, “remain for 1 day” for “placed”
The plants are then placed in a greenhouse at approximately 21° C. and a relative atmospheric humidity of approximately 90%.
The test is evaluated 10 days after the inoculation. 0% means an efficacy which corresponds to that of the untreated control, while an efficacy of 100% means that no disease is observed.
Under these conditions, excellent (at least 95%) protection is observed at a dose of 100 ppm of active ingredient with the following compound from table D: […]

Leptosphaeria nodorum = assay: In vivo preventive test on Leptosphaeria nodorum (wheat); details: 100 ppm, evaluated 7-9 days after inoculation
Procedure: Solvent: 49 parts by weight of N,N-dimethylacetamide
Emulsifier: 1 part by weight of alkylarylpolyglycol ether
To produce a suitable preparation of active compound, 1 part by weight of active compound or active compound combination is mixed with the stated amounts of solvent and emulsifier, and the concentrate is diluted with water to the desired concentration.
To test for preventive activity, young plants are sprayed with the preparation of active compound or active compound combination at the stated rate of application.
After the spray coating has been dried, the plants are sprayed with a spore suspension of Leptosphaeria nodorum. The plants remain for 48 hours in an incubation cabinet at approximately 20° C. and a relative atmospheric humidity of approximately 100%.
The plants are placed in the greenhouse at a temperature of approximately 22° C. and a relative atmospheric humidity of approximately 80%.
The test is evaluated 7-9 days after the inoculation. 0% means an efficacy which corresponds to that of the untreated control, while an efficacy of 100% means that no disease is observed.
Under these conditions, excellent (at least 95%) protection is observed at a dose of 100 ppm of active ingredient with the following compound from table G: […]

Pyrenophora teres = assay: In vivo preventive test on Pyrenophora teres (barley); details: 500 ppm of active ingredient; barley plants, preventive spray; grading 14 days after contamination
How it was run: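 Barley plants ('Plaisant', 1-leaf stage) were sprayed with compound in acetone/tween/DMSO/water, then inoculated 24 h later with P. teres spores (12 000 spores per mL). Plants were held 48 h at 20° C./100% RH, then 12 days at 70-80% RH. Efficacy (%) was graded 14 days after inoculation relative to solvent-treated controls.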

Puccinia recondita = assay: In vivo preventive test on Puccinia recondita (brown rust on wheat); details: 500 ppm of active ingredient; wheat plants, preventive spray; grading 12 days after contamination
How it was run: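 Wheat ("Scipion") at the 1-leaf stage was sprayed with compound in acetone/tween/DMSO/water, then inoculated 24 h later with Puccinia recondita spores (100 000 spores per mL). Plants were held 24 h at 20° C and 100% RH, then 10 days at 20° C and 70-80% RH. Efficacy (%) was graded 12 days post-inoculation against solvent-treated controls.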

Septoria tritici = assay: In vivo preventive test on Septoria tritici (wheat); details: 500 ppm of active ingredient; wheat plants, preventive spray; grading 24 days after contamination
Procedure: The active ingredients tested are prepared by homogenization in a mixture of acetone/tween/DMSO, and then diluted with water to obtain the desired active material concentration.
Wheat plants (“Scipion” variety), sown in starter cups on a 50/50 peat soil pozzolana substrate and grown at 22° C., are treated at the 1 leaf stage (10 cm height) by spraying with the active ingredient prepared as described above. Plants, used as controls, are treated with the mixture of acetone/tween/DMSO/water not containing the active material.
After 24 hours, the plants are contaminated by spraying the leaves with an aqueous suspension of cryopreserved Septoria tritici spores (500 000 spores per mL). The contaminated wheat plants are incubated for 72 hours at 18° C. and at 100% relative humidity, and then for 21 days at 90% relative humidity.
Grading (% of efficacy) is carried out 24 days after the contamination, in comparison with the control plants.
Under these conditions, good (at least 70%) to total protection is observed at a dose of 500 ppm of active ingredient with the following compounds from table J: […]

## Cc1nn(C)c(F)c1C(=O)N(C1CC1)C(C)c1ccccc1C1=CCCC1 (racemic) [I.1]
Sphaerotheca fuliginea
  Efficacy: 100%
Alternaria solani
  Efficacy: 94%
Venturia inaequalis
  Efficacy: 98%
Leptosphaeria nodorum
  Efficacy: 95%
Pyrenophora teres
  Efficacy: 97%
Puccinia recondita
  Efficacy: 81%
Septoria tritici
  Efficacy: 97%
